Assays:
[1] = species on record: Rattus norvegicus; experiment: animal or person; format: functional; details: Wistar, Liver, po
[2] = species on record: Rattus norvegicus; experiment: animal or person; format: functional; details: Wistar, po, 3 h
[3] = target: T1, Aromatase (Homo sapiens, UniProt P11511)
T1 sequence (P11511 whole entry): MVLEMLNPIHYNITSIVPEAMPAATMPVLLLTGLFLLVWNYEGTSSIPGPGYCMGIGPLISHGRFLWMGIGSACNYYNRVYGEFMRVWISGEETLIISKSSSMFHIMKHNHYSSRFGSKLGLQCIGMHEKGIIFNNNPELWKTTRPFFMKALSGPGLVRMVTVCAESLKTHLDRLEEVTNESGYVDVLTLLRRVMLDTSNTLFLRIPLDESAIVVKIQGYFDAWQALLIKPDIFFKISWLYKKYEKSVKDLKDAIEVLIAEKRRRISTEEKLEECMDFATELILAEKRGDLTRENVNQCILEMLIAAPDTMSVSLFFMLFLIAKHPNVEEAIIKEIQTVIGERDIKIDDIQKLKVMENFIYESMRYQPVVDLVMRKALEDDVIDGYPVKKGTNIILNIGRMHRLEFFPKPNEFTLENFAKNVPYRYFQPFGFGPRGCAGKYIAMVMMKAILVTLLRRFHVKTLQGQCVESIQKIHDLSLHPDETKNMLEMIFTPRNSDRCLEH

[4] = system: MCF7; experiment: animal or person; format: functional, Homo sapiens; details: Mus musculus, MCF7, po
[5] = system: MCF7; experiment: animal or person; format: functional, Homo sapiens; details: Mus musculus, MCF7, po; remark: listed apart in the source
[6] = system: 4T1; experiment: animal or person; format: functional; details: Mus musculus
[7] = system: 4T1; experiment: animal or person; format: functional; details: Mus musculus; remark: listed apart in the source
[8] = system: MDA-MB-231; experiment: animal or person; format: functional, Homo sapiens; details: Mus musculus
[9] = system: MDA-MB-231; experiment: animal or person; format: functional, Homo sapiens; details: Mus musculus; remark: listed apart in the source
[10] = in vivo; details: mouse, po, 10 mg/kg
[11] = in vivo; details: MF1, mouse
[12] = in vivo; details: MF1, mouse; remark: listed apart in the source
[13] = in vivo; details: MF1, mouse; remark: listed apart in the source
[14] = in vivo; details: MF1, mouse; remark: listed apart in the source
[15] = target: T2, Steryl-sulfatase (Homo sapiens, UniProt P08842); set-up: species or system Placenta, Microsome
T2 sequence (P08842 whole entry): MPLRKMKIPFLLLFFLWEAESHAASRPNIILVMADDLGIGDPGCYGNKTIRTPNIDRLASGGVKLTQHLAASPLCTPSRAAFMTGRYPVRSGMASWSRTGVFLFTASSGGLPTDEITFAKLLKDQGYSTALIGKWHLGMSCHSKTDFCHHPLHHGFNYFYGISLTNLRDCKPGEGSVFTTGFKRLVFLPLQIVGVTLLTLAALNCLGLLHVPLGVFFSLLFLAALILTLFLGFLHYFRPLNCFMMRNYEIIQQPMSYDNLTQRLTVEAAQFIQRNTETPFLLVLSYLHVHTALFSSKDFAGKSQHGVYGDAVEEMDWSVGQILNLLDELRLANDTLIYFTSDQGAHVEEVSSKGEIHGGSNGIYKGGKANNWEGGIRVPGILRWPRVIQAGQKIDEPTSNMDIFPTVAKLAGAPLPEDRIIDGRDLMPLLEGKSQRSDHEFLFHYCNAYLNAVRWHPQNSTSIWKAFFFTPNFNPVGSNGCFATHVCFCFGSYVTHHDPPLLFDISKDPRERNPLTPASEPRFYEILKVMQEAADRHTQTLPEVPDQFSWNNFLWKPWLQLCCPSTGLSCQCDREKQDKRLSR

[16] = species on record: Homo sapiens; format: functional; details: at 5 mg/day
[17] = species on record: Homo sapiens; format: functional; details: at 80 mg/day
[18] = system: MCF7; experiment: animal or person; format: functional, Homo sapiens; details: Mus musculus, MCF7, po, 1176 h
[19] = system: MCF7; experiment: animal or person; format: functional, Homo sapiens; details: Mus musculus, MCF7, po, 1176 h; remark: listed apart in the source
[20] = in vivo; details: Wistar, rat, po, 10 mg/kg
[21] = target: T2, Steryl-sulfatase; format: microsomes, Placenta, Microsome
[22] = species on record: Rattus norvegicus; experiment: animal or person; format: functional; details: Liver, po, 120 h
[23] = system: MCF7; experiment: animal or person; format: functional, Homo sapiens; details: Mus musculus, MCF7, po, 1176 h; remark: listed apart in the source
[24] = system: MCF7; experiment: animal or person; format: functional, Homo sapiens; details: Mus musculus, MCF7, po, 1176 h; remark: listed apart in the source
[25] = system: DU-145; experiment: cells; format: functional; details: Homo sapiens
[26] = system: MDA-MB-231; experiment: cells; format: functional; details: Homo sapiens
[27] = system: MDA-MB-231; experiment: animal or person; format: functional, Homo sapiens; details: Mus musculus, MDA-MB-231, po, 840 h
[28] = target: T2, Steryl-sulfatase
[29] = target: T2, Steryl-sulfatase; format: cell-based, HEK293
[30] = target: T3, Estrogen receptor (Homo sapiens, UniProt P03372)
T3 sequence (P03372 whole entry): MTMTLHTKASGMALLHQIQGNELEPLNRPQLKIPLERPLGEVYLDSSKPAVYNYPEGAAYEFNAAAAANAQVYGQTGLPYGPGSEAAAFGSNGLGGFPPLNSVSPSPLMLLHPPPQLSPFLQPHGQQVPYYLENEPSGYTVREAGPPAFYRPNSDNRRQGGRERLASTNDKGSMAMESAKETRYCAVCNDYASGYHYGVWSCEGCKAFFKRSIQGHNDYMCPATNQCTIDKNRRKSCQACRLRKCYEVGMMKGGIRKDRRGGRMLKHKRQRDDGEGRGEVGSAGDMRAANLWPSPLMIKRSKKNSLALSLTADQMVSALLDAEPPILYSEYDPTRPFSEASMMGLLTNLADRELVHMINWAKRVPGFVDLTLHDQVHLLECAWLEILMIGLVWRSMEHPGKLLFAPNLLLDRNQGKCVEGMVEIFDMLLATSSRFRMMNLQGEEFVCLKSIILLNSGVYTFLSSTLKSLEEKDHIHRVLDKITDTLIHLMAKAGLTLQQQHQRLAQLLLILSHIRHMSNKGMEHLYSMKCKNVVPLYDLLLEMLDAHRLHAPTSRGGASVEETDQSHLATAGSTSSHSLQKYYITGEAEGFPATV

[31] = system: DU-145; experiment: cells; format: functional; details: Homo sapiens, DU-145, 96 h
[32] = system: MDA-MB-231; experiment: cells; format: functional; details: Homo sapiens, MDA-MB-231, 96 h
[33] = target: Carbonic anhydrase 2 (Homo sapiens, UniProt P00918)
[34] = species on record: Rattus norvegicus; experiment: animal or person; format: functional; details: Wistar, Liver, po, 24 h
[35] = species on record: Rattus norvegicus; experiment: animal or person; format: functional; details: Wistar, Liver, po, 24 h; remark: listed apart in the source
[36] = species on record: Rattus norvegicus; experiment: animal or person; format: functional; details: Wistar, Liver, sc, 168 h
[37] = species on record: Rattus norvegicus; experiment: animal or person; format: functional; details: Wistar, Liver, sc, 168 h; remark: listed apart in the source
[38] = species on record: Rattus norvegicus; experiment: animal or person; format: functional; details: Liver, po, 2 h
[39] = species on record: Rattus norvegicus; experiment: animal or person; format: functional; details: Liver, po, 2 h; remark: listed apart in the source
[40] = species on record: Rattus norvegicus; experiment: animal or person; format: functional; details: Liver, po, 2 h; remark: listed apart in the source
[41] = species on record: Rattus norvegicus; experiment: animal or person; format: functional; details: po, 2 h
[42] = species on record: Rattus norvegicus; experiment: animal or person; format: functional; details: po, 2 h; remark: listed apart in the source
[43] = species on record: Rattus norvegicus; experiment: animal or person; format: functional; details: po, 2 h; remark: listed apart in the source
[44] = system: MCF7; experiment: cells; format: functional; details: Homo sapiens
[45] = species on record: Homo sapiens; format: functional
[46] = species on record: Homo sapiens; format: functional; remark: listed apart in the source
[47] = species on record: Homo sapiens; format: functional; remark: listed apart in the source
[48] = species on record: Homo sapiens; format: functional; remark: listed apart in the source

Compound: N#Cc1ccc(N(Cc2ccc(Br)cc2)n2cnnc2)cc1
- inhibition in vivo at 10 mg/kg [1]: ≥ 98%
- inhibition in vivo at 10 mg/kg [2]: 70%
- IC50 [3]: 0.12 nM

Compound: COc1cc2c(cc1OS(N)(=O)=O)CC[C@@H]1[C@@H]2CC[C@]2(C)[C@@H](OS(N)(=O)=O)CC[C@@H]12
- inhibition in vivo at 20 mg/kg [4]: 52%
- inhibition in vivo at 5 mg/kg [5]: 46%
- inhibition in vivo at 20 mg/kg/day [6]: 80.4%
- inhibition in vivo at 20 mg/kg/day [7]: 35%
- ED50 [8]: 10 mg/kg
- ED50 [9]: 20 mg/kg
- bioavailability at 24 h [10]: 85%
- LD50 [11]: 30 mg/kg
- selectivity ratio [12]: 3
- LD50 [13]: 80 mg/kg
- selectivity ratio [14]: 4

Compound: NS(=O)(=O)Oc1ccc2c(c1)OC(=O)C1CCCCCC21 (stereo not drawn)
- IC50 [15]: 8 nM
- inhibition (INH) [16]: >=95%
- inhibition (INH) [17]: >=95%
- inhibition in vivo at 20 mg/kg [18]: 39%
- inhibition in vivo at 20 mg/kg [19]: 79%
- bioavailability [20]: 95%

Compound: CCCN1C(=O)C[C@H]2[C@@H]3CCc4cc(OS(N)(=O)=O)ccc4[C@H]3CC[C@]2(C)C1=O
- IC50 [21]: 1 nM
- inhibition in vivo at 10 mg/kg/day [22]: 99%
- inhibition in vivo at 10 mg/kg [23]: 56%
- inhibition in vivo at 10 mg/kg [24]: 39%

Compound: COc1cc2c(cc1OS(N)(=O)=O)CCN(Cc1cc(OC)c(OC)c(OC)c1)C2
- GI50 [25]: 297 nM
- GI50 [26]: 329 nM
- inhibition in vivo at 20 mg/kg/day [27]: 84%

Compound: CC(C)(C#N)c1cc(Cn2cncn2)cc(Sc2ccc(OS(N)(=O)=O)c(Cl)c2)c1
- IC50 [28]: 3000 nM

Compound: CCN(Cc1ccc(C(=O)N2CCc3ccc(OS(N)(=O)=O)cc3C2)cc1)Cc1ccccn1
- IC50 [29]: 300 nM
- IC50 [30]: 3100 nM

Compound: CCN(CC)CCOCC[C@@]1(C)CC[C@H]2[C@@H]3[C@H](C)Cc4cc(OS(N)(=O)=O)ccc4[C@H]3CC[C@@]21C
- GI50 [31]: 51 nM
- GI50 [32]: 71 nM

Compound: CCc1cc2c(cc1OS(N)(=O)=O)CC[C@@H]1[C@@H]2CC[C@]2(C)[C@@H](OS(N)(=O)=O)CC[C@@H]12
- Ki [33]: 232 nM

Compound: NS(=O)(=O)Oc1ccc(C(=O)c2ccc(OS(N)(=O)=O)cc2)cc1
- inhibition in vivo at 1 mg/kg [34]: 84%
- inhibition in vivo at 10 mg/kg [35]: 93%

Compound: C[C@]12CC[C@@H]3c4ccc(OS(N)(=O)=O)cc4CC[C@H]3[C@@H]1CCC2=O [EMATE]
- inhibition in vivo at 0.1 mg/kg [36]: 87%
- inhibition in vivo at 0.1 mg/kg [37]: 87%
- inhibition in vivo at 10 mg/kg [38]: 98%
- inhibition in vivo at 20 mg/kg [39]: 98%
- inhibition in vivo at 40 mg/kg [40]: 98%
- inhibition in vivo at 10 mg/kg [41]: 98%
- inhibition in vivo at 20 mg/kg [42]: 98%
- inhibition in vivo at 40 mg/kg [43]: 98%
- GI50 [44]: 22800 nM
- inhibition (INH) [45]: 41%
- inhibition (INH) [46]: 72%
- inhibition (INH) [47]: 50%
- inhibition (INH) [48]: 34%

— ChEMBL document CHEMBL3621110, “Discovery and Development of the Aryl O-Sulfamate Pharmacophore for Oncology and Women's Health” (J Med Chem, 2015)
